From the supplement of paper PMC10307832

Key:
Experiment in all cases: relative viability (nuclei count vs DMSO), 5 days (fraction); higher = more cells survive
XMD13-2 + Vorinostat = compound: C1CC1C(=O)NC2=NNC3=C2C=CC(=C3)C4=CC(=CC=C4)C(=O)NC5CC5 [XMD13-2] + O=C(CCCCCCC(=O)Nc1ccccc1)NO [Vorinostat] (partner 1 µM)
Outline: (§1)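 Nuclei were stained with Hoechst during a one-step fixation (final 0.05% Triton X-100, 1% formaldehyde, 1 ug/ml Hoechst) carried out 5 days after dosing, then counted on 4× images. The cells, lung cancer lines in 1536-well plates, had been dosed by pin tool the day after seeding with one drug alone or a fixed anchor-drug dose plus five library-drug doses (not always all listed) in √10 steps. Relative viability is the nuclei count in treated wells divided by that in vehicle wells, and each value is the median of duplicate plates.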

XMD13-2 + Crizotinib = compound: C1CC1C(=O)NC2=NNC3=C2C=CC(=C3)C4=CC(=CC=C4)C(=O)NC5CC5 [XMD13-2] + C[C@@H](Oc1cc(-c2cnn(C3CCNCC3)c2)cnc1N)c1c(Cl)ccc(F)c1Cl [Crizotinib] (partner 1 µM)
Outline: as §1

ALW-II-49-7 + Crizotinib = compound: Cc1ccc(C(=O)Nc2cccc(C(F)(F)F)c2)cc1Nc1cncc(C(N)=O)c1 [ALW-II-49-7] + C[C@@H](Oc1cc(-c2cnn(C3CCNCC3)c2)cnc1N)c1c(Cl)ccc(F)c1Cl [Crizotinib] (partner 1 µM)
Outline: as §1

Dasatinib + Crizotinib = compound: Cc1nc(Nc2ncc(C(=O)Nc3c(C)cccc3Cl)s2)cc(N2CCN(CCO)CC2)n1 [Dasatinib] + C[C@@H](Oc1cc(-c2cnn(C3CCNCC3)c2)cnc1N)c1c(Cl)ccc(F)c1Cl [Crizotinib] (partner 1 µM)
Outline: as §1

Cell Line	relative viability (XMD13-2 + Vorinostat; first compound 0.05 µM)	relative viability (XMD13-2 + Vorinostat; first compound 0.1581 µM)	relative viability (XMD13-2 + Vorinostat; first compound 0.5 µM)	relative viability (XMD13-2 + Vorinostat; first compound 1.581 µM)	relative viability (XMD13-2 + Vorinostat; first compound 5 µM)	relative viability (XMD13-2 + Crizotinib; first compound 0.05 µM)	relative viability (XMD13-2 + Crizotinib; first compound 0.1581 µM)	relative viability (XMD13-2 + Crizotinib; first compound 0.5 µM)	relative viability (XMD13-2 + Crizotinib; first compound 1.581 µM)	relative viability (XMD13-2 + Crizotinib; first compound 5 µM)	relative viability (ALW-II-49-7 + Crizotinib; first compound 0.08 µM)	relative viability (ALW-II-49-7 + Crizotinib; first compound 0.253 µM)	relative viability (ALW-II-49-7 + Crizotinib; first compound 0.8 µM)	relative viability (ALW-II-49-7 + Crizotinib; first compound 2.53 µM)	relative viability (ALW-II-49-7 + Crizotinib; first compound 8 µM)	relative viability (Dasatinib + Crizotinib; first compound 0.005 µM)	relative viability (Dasatinib + Crizotinib; first compound 0.01581 µM)	relative viability (Dasatinib + Crizotinib; first compound 0.05 µM)	relative viability (Dasatinib + Crizotinib; first compound 0.1581 µM)	relative viability (Dasatinib + Crizotinib; first compound 0.5 µM)
HARA	0.555	0.484	0.536	0.578	0.372	1.2	1.05	1.13	1.1	0.486	0.914	0.982	1.01	1.25	1.23	1.08	0.754	0.71	0.261	0.133
NCI-H650	0.526	0.416	0.46	0.348	0.497	0.838	0.836	0.803	0.638	0.74	0.679	0.699	0.62	0.43	0.516	0.741	0.61	0.632	0.444	0.3
NCI-H1975	0.795	0.636	0.662	0.931	0.801	1.21	1.02	0.91	0.954	1.14	0.838	1.04	0.852	0.912	0.893	0.858	0.852	0.612	0.404	0.272
NCI-H2085	0.897	0.745	0.842	0.711	0.81	1.09	0.901	0.877	0.736	0.826	0.762	0.889	0.898	0.905	0.938	0.93	0.806	0.408	0.193	0.158
NCI-H3122	1.04	0.987	1.1	0.995	0.941	0.308	0.289	0.267	0.251	0.249	0.309	0.272	0.271	0.331	0.307	0.261	0.332	0.347	0.253	0.223
NCI-H1651	0.586	0.561	0.565	0.593	0.613	0.946	0.811	0.886	0.898	0.863	0.947	0.767	0.823	0.862	0.835	0.874	0.776	0.841	0.768	0.704
NCI-H441	0.854	1.01	0.97	0.87	0.839	0.842	0.715	0.875	0.656	0.578	0.772	0.714	0.676	0.598	0.625	0.62	0.626	0.617	0.309	0.162
ABC-1	1.3	0.979	1.03		0.774	1.4	1.41	1.16	1.03	0.675	0.978	0.92	0.838	1.05	1.03	0.929	0.856	0.699	0.586	0.367
NCI-H2126	0.849	0.731	0.745	0.749	0.735	1.08	0.979	1.04	0.998	1.06	0.857	0.976	1.06	0.998	0.987	0.966	0.9	0.915	0.607	0.369
RERF-LC-KJ	0.783	0.653	0.686	0.616	0.806	0.865	0.85	0.816	0.771	0.801	0.831	0.924	0.992	0.831	0.741	0.839	0.977	0.832	0.75	0.764
NCI-H1666	0.999	1.02	1.09	1.03	1	0.832	0.989	1.09	0.971	0.855	0.948	0.964	0.909	1.06	0.965	1.01	0.878	0.783	0.561	0.247
PC-14	0.951	0.934	0.749	0.825	0.975	1.03	0.961	0.909	0.818	0.969	0.911	0.953	0.841	0.863	0.866	0.94	0.975	0.855	0.448	0.113
NCI-H1915	0.582	0.486	0.5	0.486	0.474	0.966	0.931	0.902	0.967	0.941	0.896	0.863	0.828	0.682	0.572	0.828	0.764	0.638	0.284	0.24
NCI-H661	0.811	0.75	0.75	0.825	0.563	0.985	1.02	0.864	0.887	0.875		1	0.922		1.04	1.08	1.19	0.972	0.8	0.547
SK-MES-1	1.16	1.09	1.07	1.03	1.31	1.14	1.06	1.04	0.93	1.02	0.885	0.979	0.948	0.926	0.7	0.968	0.937	0.93	0.372	0.212
NCI-H1944	0.632	0.53	0.607	0.808	0.628	1.42	1.11	1.14	1.35	1.09	1.14	0.981	1.06	1.09	1.12	1.06	0.847	0.779	0.327	0.233
HCC-78	0.481	0.489	0.454	0.445	0.413	0.373	0.356	0.34	0.35	0.309	0.335	0.321	0.32	0.297	0.371	0.314	0.289	0.25	0.158	0.145
PC-3 [JPC-3]	0.804	0.857	0.916		0.734	1.02	0.897	0.963	1.01	0.847	0.854	0.979	1.05	1.06	1.01	0.996	0.986	1.11	0.955	0.63
LCLC-103H	0.891	0.83	0.817	0.696	0.751	1.05	1.01	1.18	1	1.14	1.04	1.06	1.07	1.02	1.18	0.992	1.05	0.968	0.734	0.488
EKVX	0.785	0.625	0.758	0.661	0.702	1.05	1.21	1.06	0.977	1.12	0.989	0.79	0.969	0.718	0.818	0.994	0.633	0.528	0.314	0.138
NCI-H460	1	0.723	0.828	0.696	0.766	1.25	0.951	0.99	0.949	0.873	1	0.877	0.802	1.01	0.793	0.729	0.602	0.432	0.243	0.218
NCI-H2170	0.904	0.753	0.855	0.794	0.809	1.27	1.17	1.34	1.19	1.16	1.3	1.12	1.3	1.21	1.09	1.1	0.94	0.84	0.547	0.523
NCI-H727	1.23	1.09	1.41	1.33	1.22	0.938	0.697	1	0.771	0.687	0.739	0.874	0.847	0.804	0.885	0.707	0.548	0.491	0.241	0.223
NCI-H838	0.839	0.661	0.756	0.713	0.763	0.917	0.891	0.814	0.883	0.848	0.851	0.871	0.854	0.788	1	0.571	0.577	0.306	0.23	0.202
H3255	0.839	0.716	0.746		0.662	0.972	0.694	0.699	0.884	0.784	0.945	0.993	0.81	0.696	0.564	0.901	0.757	0.617	0.557	0.27
EPLC-272H	0.474	0.473	0.374	0.33	0.0998	1.02	0.76	1.09	0.802	0.25	0.869	0.754	0.85	1.15	1	0.99	0.765	0.787	0.537	0.326
NCI-H647	0.706	0.59	0.822	0.746	0.425	1.25	0.903	1.12	1.03	0.548	1.07	1.4	1.28	0.776	0.67	0.734	0.526	0.285	0.149	0.133
